# {Gly} = glycine residue at the PNA end written 3'; {Lys} = lysine residue at the PNA end written 5'
# Assays:
# macrophags iNOS = conditions: in vitro, macrophages; cited from earlier work
# cells in culture = conditions: cited from earlier work
# [1] = test system: Sense 5′-3′: GAA AGA GGA AAA GG; assay: Hybridization experiments (Tm from UV melting curves); assay type: binding; conditions: for Tm (temperature of melting, hybridization): vs sense DNA, duplex 5 μM, 10 mM phosphate buffer, 100 mM NaCl, 0.1 mM EDTA, pH=7
# Protocol: The DNA sequences used in the hybridization experiments were purchased from (Sigma; USA). A PNA sequence was purchased from Bio-Synthesis Inc. (Lewisville, USA). All hybrid samples reported were first incubated at 90° C. for 5 minutes, then slowly cooled at room temperature. The Duplex concentration of the various samples was 5 μM. All hybridization experiments were carried out in a 10 mM phosphate buffer, 100 mM NaCl, 0.1 mM EDTA, pH=7. Temperature was monitored by an internal thermocouple, at an accuracy of ±0.3° C. Melting curves were recorded by heating the samples (1° C./min) with a 2-min. hold time by UV signal at 260 nm. Melting temperatures were taken as the maximum of the first derivative of the melting curves. UV absorbance measurements were performed on a Varian Cart 5E UV-VIS-NIR spectrophotometer equipped with a Cary temperature controller, in 1-cm quartz cells.
# The modifications on the PNA chain although improving bioavailability can diminish activity (hybridization). To examine the effect of modifications on activity properties an experiment was conducted to examine the hybridization properties (determined by changes in temperature of melting or Tm) KBP-10 sequence. Tm value (39.5° C.) was almost the same as predicted calculated value based on sequence (40° C.).
# Multiple Sclerosis Model = assay: Multiple sclerosis model (MOG 35-55 inoculated mice); assay type: in vivo; conditions: 10 mg/kg for 10 consecutive days
# Protocol: Mice (female, Cpb 57B1/6; Harlan) were inoculated with ecephalitogenic peptide (MOG 35-55; synthesized at the Hebrew university) emulsified with CFA and pertussis toxin (Sigma) and in the same time were treated with CH(K)6HC-O-5′CTTTCTCCTTTTCC3′-O-HAIYPRH (KBP-11; 10 mg/kg; n=3) or with vehicle solution (control group; n=4) for 10 consecutive days, starting a day after the inoculation of MOG.
# At the end the experiment (day 30) animals were scarified and brain tissue were send to histological (H&E analysis) and immunohistochemical (iNOS expression) analysis.
# [2] = starting a day after MOG inoculation, n=3
substance,measurement,setting,value
"3′-Gly-CTTTCTCCTTTTCC-Lys 5′ (all peptide nucleic acid (PNA), 5' {Lys}, 3' {Gly}) [PNA targeting macrophage iNOS]",iNOS expression,macrophags iNOS,specifically diminished its expression
CHK6HC,Transfection of cells in culture,cells in culture,improved transfection of cells in culture
"CTTTCTCCTTTTCC (chemistry not given here) [Oligodeoxynucleotide, reference compound]","Tm (temperature of melting, hybridization)",[1],46.96 °C
CH(K)6HC-O-5′CTTTCTCCTTTTCC3′-O-HAIYPRH [KBP-11],Incidence,Multiple Sclerosis Model; [2],1/3
same,Mean disease duration,Multiple Sclerosis Model; [2],6 days
same,Mean Score (Disease burden),Multiple Sclerosis Model; clinical score 0-6,0.4 ± 0.16
same,Effect of peptide modification on hybridization properties,"[1]; modified PNA vs. ODN, FIG. 1",did not affect the hybridization properties
same,"Tm (temperature of melting, hybridization)",[1],39.00 °C
